8 molecules from ChEMBL document CHEMBL1126463, “Thiol-induced crosslinking of human blood proteins: implications for tumor immunity” (Bioorg Med Chem Lett, 1992) can be followed below.

The data set is described as follows: Effect of compound on gelation time of human serum induced by dithiothreitol (DTT). The format is ADME.
Consider `C=CCSS/C=C/C[S+]([O-])CC=C` (stereo not drawn) [AJOENE], for which the Inhibitory concentration is recorded as 10 mM.

Molecule `NC(CSSCC(N)C(=O)O)C(=O)O` (stereo not drawn) displayed an Inhibitory concentration of 20 mM.

The molecule `O=C1OC(C(O)CO)C(=O)C1=O` (stereo not drawn) [DEHYDROASCORBIC ACID] yielded an Inhibitory concentration of 20 mM.

`C=CCSSCC=C` [DIALLYLDISULFIDE] returned an Inhibitory concentration of 20 mM.

Molecule `CC(=O)C=O` [METHYLGLYOXAL] displayed an Inhibitory concentration of 20 mM.

In turn, `O=C1O[C@H]([C@@H](O)CO)C(O)=C1O` [ASCORBIC ACID] returned an Inhibitory concentration of more than 100 mM.

`N[C@@H](CS)C(=O)O` [CYSTEINE] gave an Inhibitory concentration of more than 200 mM.

Regarding `C=CCSCC=C` [DIALLYL SULFIDE], the Inhibitory concentration is listed as more than 200 mM.
